pIC50: −log10 of the molar value.
Key:
[1] = molecular target: T1, Steroid 17-alpha-hydroxylase/17,20 lyase (Homo sapiens, UniProt P05093)
T1 sequence (P05093 whole entry): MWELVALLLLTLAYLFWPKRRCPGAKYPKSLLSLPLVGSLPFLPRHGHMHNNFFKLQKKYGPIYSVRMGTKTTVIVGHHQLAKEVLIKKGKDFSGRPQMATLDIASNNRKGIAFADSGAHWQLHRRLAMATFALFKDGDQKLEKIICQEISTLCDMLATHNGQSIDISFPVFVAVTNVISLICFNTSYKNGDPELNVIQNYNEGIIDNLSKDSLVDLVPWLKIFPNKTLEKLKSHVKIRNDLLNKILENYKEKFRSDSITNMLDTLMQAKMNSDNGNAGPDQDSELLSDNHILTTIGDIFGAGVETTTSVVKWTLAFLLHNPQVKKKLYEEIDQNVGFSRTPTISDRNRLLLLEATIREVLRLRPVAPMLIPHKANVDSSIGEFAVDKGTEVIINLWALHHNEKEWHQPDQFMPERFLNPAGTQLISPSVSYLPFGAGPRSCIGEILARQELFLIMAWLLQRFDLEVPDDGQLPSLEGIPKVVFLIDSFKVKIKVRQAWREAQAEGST

[2] = molecular target: T1, Steroid 17-alpha-hydroxylase/17,20 lyase; remark: listed apart in the source
[3] = molecular target: T2, Steroid 17-alpha-hydroxylase/17,20 lyase (Rattus norvegicus, UniProt P11715)
T2 sequence (P11715 whole entry): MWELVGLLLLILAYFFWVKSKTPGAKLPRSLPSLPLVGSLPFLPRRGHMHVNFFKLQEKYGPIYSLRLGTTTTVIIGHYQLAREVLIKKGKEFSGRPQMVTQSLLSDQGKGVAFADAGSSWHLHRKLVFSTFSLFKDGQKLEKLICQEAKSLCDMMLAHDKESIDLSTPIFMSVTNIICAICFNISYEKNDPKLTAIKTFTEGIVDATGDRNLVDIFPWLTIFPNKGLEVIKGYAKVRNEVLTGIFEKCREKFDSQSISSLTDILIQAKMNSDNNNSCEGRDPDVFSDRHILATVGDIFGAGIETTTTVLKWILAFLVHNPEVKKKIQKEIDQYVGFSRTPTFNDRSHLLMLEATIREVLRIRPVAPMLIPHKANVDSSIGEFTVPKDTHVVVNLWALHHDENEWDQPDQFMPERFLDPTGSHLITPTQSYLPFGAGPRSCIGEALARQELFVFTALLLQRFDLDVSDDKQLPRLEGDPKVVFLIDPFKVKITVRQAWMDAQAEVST

[4] = molecular target: T2, Steroid 17-alpha-hydroxylase/17,20 lyase; remark: listed apart in the source
esterase = assay: in vitro; conditions: rat, in vivo
Description: Hydrolysis rate by rat liver microsomal esterase

| SMILES | pIC50 [1] | pIC50 [2] | pIC50 [3] | pIC50 [4] | half-life (esterase) [min] |
| --- | --- | --- | --- | --- | --- |
| C[C@@H]1C(OC(=O)Cc2cccnc2)CC2CC1C2(C)C (stereo not given in full) | 6.59 | 7.06 | 6.28 | 6.34 | 16 |
| CC(C(=O)OC1CC2CC([C@@H]1C)C2(C)C)c1cccnc1 (stereo not given in full) | 7.09 | 7.85 | – | – | 50 |
| C[C@@H]1C(OC(=O)Cc2ccncc2)CC2CC1C2(C)C (stereo not given in full) | 7.85 | 8.30 | 6.55 | 6.59 | 17.5 |
| CCC(CC)(C(=O)OC1CC2CC([C@@H]1C)C2(C)C)c1ccncc1 (stereo not given in full) | 6.85 | 7.46 | – | – | – |
| CC(C(=O)OC1CC2CC([C@@H]1C)C2(C)C)c1ccncc1 (stereo not given in full) | 7.72 | 8.22 | – | – | 100 |
| CC(C)(C(=O)OC12CC3CC(CC(C3)C1)C2)c1cccnc1 | 7.05 | 7.89 | – | – | – |
| C[C@@H]1CCC2C(C)(C)C3CC21CC[C@@]3(C)OC(=O)Cc1ccncc1 (stereo not given in full) | 6.57 | 7.28 | – | – | – |
| CC(C(=O)OC12CC3CC(CC(C3)C1)C2)c1cccnc1 (stereo not given) | 6.66 | 7.46 | – | – | – |
| C[C@@H]1C(OC(=O)Cc2ccccn2)CC2CC1C2(C)C (stereo not given in full) | < 6.00 | < 6.00 | – | – | – |
| O=C(Cc1cccnc1)OC12CC3CC(CC(C3)C1)C2 | 6.03 | 6.89 | – | – | – |
| C[C@@H]1C(OC(=O)C(C)(C)c2ccncc2)CC2CC1C2(C)C (stereo not given in full) | 7.59 | 8.00 | – | – | – |
| C[C@@H]1CCC2C(C)(C)C3CC21CC[C@@]3(C)OC(=O)Cc1cccnc1 (stereo not given in full) | 6.64 | 7.42 | – | – | – |
| CC(C)(C(=O)OC1(C)C2CC3CC(C2)CC1C3)c1cccnc1 (stereo not given) | 7.12 | 7.89 | – | – | – |
| CC1(OC(=O)Cc2cccnc2)C2CC3CC(C2)CC1C3 (stereo not given) | 5.72 | 6.49 | – | – | – |
| CCC(C(=O)OC1CC2CC([C@@H]1C)C2(C)C)c1ccncc1 (stereo not given in full) | 7.47 | 8.05 | – | – | 88 |
| C[C@@H]1C(OC(=O)C(C)(C)c2cccnc2)CC2CC1C2(C)C (stereo not given in full) | 7.54 | 7.82 | 7.28 | 7.33 | – |
| C[C@@H]1CCC2C(C)(C)C3CC21CC[C@@]3(C)OC(=O)C(C)(C)c1cccnc1 (stereo not given in full) | 5.40 | 6.17 | – | – | – |
